According to ChEMBL document CHEMBL1201862, “PubChem BioAssay data set” (2004):
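All cell lines were grown in 96-well plates and treated with compound for 48 hours. Here, GI50 denotes the concentration required for 50% inhibition of growth.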 Calls of active or inactive are those of the source. Rule as the data show it: active = GI50 up to about 1.1 µM and inactive = higher.

How the values were obtained:
Test in all cases: DTP human tumour cell line panel, 48 h
[1] = system: A498
[2] = system: ACHN
[3] = system: BT-549
[4] = system: CAKI-1
[5] = system: CCRF-CEM
[6] = system: EKVX
[7] = system: HCC 2998
[8] = system: HCT-15
[9] = system: HL-60
[10] = system: HOP-92
[11] = system: KM12
[12] = system: MDA-MB-231
[13] = system: MDA-MB-435
[14] = system: MDA-N
[15] = system: MOLT-4
[16] = system: NCI-H226
[17] = system: NCI-H23
[18] = system: NCI-H460
[19] = system: NCI/ADR-RES
[20] = system: OVCAR-4
[21] = system: OVCAR-8
[22] = system: RPMI-8226
[23] = system: SF-268
[24] = system: SK-MEL-28
[25] = system: SN12C
[26] = system: SNB-19
[27] = system: SNB-75
[28] = system: SR
[29] = system: TK-10
[30] = system: U-251
[31] = system: UACC-257
[32] = system: UACC-62
[33] = system: UO-31
[34] = system: 786-0
[35] = system: A549
[36] = system: COLO 205
[37] = system: DU-145
[38] = system: HCT-116
[39] = system: HOP-62
[40] = system: HT-29
[41] = system: Hs-578T
[42] = system: IGROV-1
[43] = system: K562
[44] = system: LOX IMVI
[45] = system: M14
[46] = system: MCF7
[47] = system: Malme-3M
[48] = system: NCI-H522
[49] = system: OVCAR-3
[50] = system: PC-3
[51] = system: SF-295
[52] = system: SF-539
[53] = system: SK-MEL-2
[54] = system: SK-MEL-5
[55] = system: SK-OV-3
[56] = system: SW-620
[57] = system: OVCAR-5
[58] = system: RXF 393
[59] = system: T47D

For `CC1(C)/C(=N\O)C2(OS(=O)(=O)C(F)(F)F)CCC1C2` (centres undefined), which GI50 [1] is on record?
The GI50 was > 100 µM (inactive).

What about the GI50 [2] of the same compound?
The GI50 was > 100 µM (inactive).

And the GI50 [3]?
The GI50 was > 100 µM (inactive).

What about the GI50 [4] of the same compound?
Its GI50 is > 100 µM (inactive).

What about the GI50 [5] of the same compound?
Its GI50 is > 100 µM (inactive).

And the GI50 [6]?
The GI50 was > 100 µM (inactive).

What about the GI50 [7] of the same compound?
The GI50 was > 100 µM (inactive).

What about the GI50 [8] of the same compound?
Its GI50 is greater than 100 µM.

And the GI50 [9]?
The GI50 was 12 µM (inactive).

And the GI50 [10]?
Its GI50 is > 100 µM (inactive).

And the GI50 [11]?
The GI50 was > 100 µM (inactive).

What about the GI50 [12] of the same compound?
The GI50 was > 100 µM (inactive).

What about the GI50 [13] of the same compound?
Its GI50 is 60.1 µM (inactive).

And the GI50 [14]?
Its GI50 is > 100 µM (inactive).

And the GI50 [15]?
The GI50 was > 100 µM (inactive).

What about the GI50 [16] of the same compound?
The GI50 was 70.8 µM (inactive).

And the GI50 [17]?
Its GI50 is > 100 µM (inactive).

What about the GI50 [18] of the same compound?
Its GI50 is > 100 µM (inactive).

And the GI50 [19]?
Its GI50 is > 100 µM (inactive).

What about the GI50 [20] of the same compound?
Its GI50 is > 100 µM (inactive).

What about the GI50 [21] of the same compound?
Its GI50 is > 100 µM (inactive).

What about the GI50 [22] of the same compound?
The GI50 was 27.4 µM (inactive).

What about the GI50 [23] of the same compound?
Its GI50 is > 100 µM (inactive).

What about the GI50 [24] of the same compound?
The GI50 was > 100 µM (inactive).

And the GI50 [25]?
Its GI50 is > 100 µM (inactive).

What about the GI50 [26] of the same compound?
Its GI50 is > 100 µM (inactive).

And the GI50 [27]?
Its GI50 is > 100 µM (inactive).

What about the GI50 [28] of the same compound?
The GI50 was 55.1 µM (inactive).

And the GI50 [29]?
Its GI50 is > 100 µM (inactive).

And the GI50 [30]?
Its GI50 is > 100 µM (inactive).

What about the GI50 [31] of the same compound?
The GI50 was > 100 µM (inactive).

What about the GI50 [32] of the same compound?
Its GI50 is > 100 µM (inactive).

What about the GI50 [33] of the same compound?
The GI50 was > 100 µM (inactive).

What does the source list for `COc1cccc(NC(=O)CC(=O)Nc2cccc(OC)c2)c1`?
GI50 [34]: > 100 µM (inactive); GI50 [1]: > 100 µM (inactive); GI50 [35]: > 100 µM (inactive); GI50 [2]: > 100 µM (inactive); GI50 [3]: > 100 µM (inactive); GI50 [4]: > 100 µM (inactive); GI50 [5]: > 100 µM (inactive); GI50 [36]: > 100 µM (inactive); GI50 [37]: > 100 µM (inactive); GI50 [6]: > 100 µM (inactive); GI50 [7]: > 100 µM (inactive); GI50 [38]: > 100 µM (inactive); GI50 [8]: > 100 µM; GI50 [9]: > 100 µM (inactive); GI50 [39]: > 100 µM (inactive); GI50 [10]: > 100 µM (inactive); GI50 [40]: > 100 µM (inactive); GI50 [41]: > 100 µM (inactive); GI50 [42]: > 100 µM (inactive); GI50 [43]: > 100 µM (inactive); GI50 [11]: > 100 µM (inactive); GI50 [44]: > 100 µM (inactive); GI50 [45]: > 100 µM (inactive); GI50 [46]: > 100 µM (inactive); GI50 [12]: > 100 µM (inactive); GI50 [13]: > 100 µM (inactive); GI50 [14]: > 100 µM (inactive); GI50 [15]: > 100 µM (inactive); GI50 [47]: > 100 µM (inactive); GI50 [16]: > 100 µM (inactive); GI50 [17]: > 100 µM (inactive); GI50 [18]: > 100 µM (inactive); GI50 [48]: > 100 µM (inactive); GI50 [19]: > 100 µM (inactive); GI50 [49]: > 100 µM (inactive); GI50 [20]: > 100 µM (inactive); GI50 [21]: > 100 µM (inactive); GI50 [50]: > 100 µM (inactive); GI50 [22]: > 100 µM (inactive); GI50 [23]: > 100 µM (inactive); GI50 [51]: > 100 µM (inactive); GI50 [52]: > 100 µM (inactive); GI50 [24]: > 100 µM (inactive); GI50 [53]: > 100 µM (inactive); GI50 [54]: > 100 µM (inactive); GI50 [55]: > 100 µM (inactive); GI50 [25]: > 100 µM (inactive); GI50 [26]: > 100 µM (inactive); GI50 [28]: > 100 µM (inactive); GI50 [56]: > 100 µM (inactive); GI50 [29]: > 100 µM (inactive); GI50 [30]: > 100 µM (inactive); GI50 [31]: > 100 µM (inactive); GI50 [32]: > 100 µM (inactive); GI50 [33]: > 100 µM (inactive)

What does the source list for `CN1C(CC(O)c2ccccc2)CCCC1CC(O)(c1ccccc1)c1ccccc1` (centres undefined)?
GI50 [34]: 15.7 µM (inactive); GI50 [35]: 22.1 µM (inactive); GI50 [2]: 19.7 µM (inactive); GI50 [4]: 75.2 µM (inactive); GI50 [5]: 19.8 µM (inactive); GI50 [36]: 16.4 µM (inactive); GI50 [37]: 20.8 µM (inactive); GI50 [6]: 26.4 µM (inactive); GI50 [7]: 22.9 µM (inactive); GI50 [38]: 14.9 µM (inactive); GI50 [8]: 16.5 µM; GI50 [9]: 17.3 µM (inactive); GI50 [39]: 14.3 µM (inactive); GI50 [40]: 12.1 µM (inactive); GI50 [42]: 17.2 µM (inactive); GI50 [43]: 29 µM (inactive); GI50 [11]: 18.5 µM (inactive); GI50 [44]: 20.3 µM (inactive); GI50 [45]: 16.8 µM (inactive); GI50 [46]: 20.9 µM (inactive); GI50 [12]: 22.6 µM (inactive); GI50 [14]: 18.5 µM (inactive); GI50 [15]: 17.5 µM (inactive); GI50 [47]: 18.2 µM (inactive); GI50 [16]: 21.1 µM (inactive); GI50 [17]: 16.7 µM (inactive); GI50 [48]: 19.9 µM (inactive); GI50 [19]: 16.9 µM (inactive); GI50 [49]: 15.6 µM (inactive); GI50 [57]: 15 µM (inactive); GI50 [21]: 20.8 µM (inactive); GI50 [50]: 18.2 µM (inactive); GI50 [22]: 17.1 µM (inactive); GI50 [58]: 14.9 µM (inactive); GI50 [23]: 18.7 µM (inactive); GI50 [51]: 16.9 µM (inactive); GI50 [52]: 13.6 µM (inactive); GI50 [24]: 16 µM (inactive); GI50 [54]: 16.6 µM (inactive); GI50 [55]: 21.4 µM (inactive); GI50 [25]: 17.8 µM (inactive); GI50 [26]: 17.1 µM (inactive); GI50 [27]: 19.1 µM (inactive); GI50 [28]: 18.7 µM (inactive); GI50 [56]: 19.4 µM (inactive); GI50 [59]: 21 µM (inactive); GI50 [29]: 18.5 µM (inactive); GI50 [30]: 15.1 µM (inactive); GI50 [31]: 17.6 µM (inactive); GI50 [32]: 21 µM (inactive); GI50 [33]: 8.36 µM (inactive)
